Laboratory results reported in patent US10023864B2, “Methods of treating a metabolic syndrome by modulating heat shock protein (HSP) 90-beta” (Berg LLC, priority 2014, dated 2018).
“Also recorded” adds a separate entry of the source. d = 2'-deoxy (DNA); m = 2'-O-methyl

Tests used:
HSMM myotubes [1] = test: Insulin signaling experiments in HSMM myotubes (western blot of phosphorylated Akt, ERK, GSK3β); assay type: cell-based, human
Experimental: Human HSMM myotubes cells that were plated in 12 well plates the previous week were used. The media was aspirated and fresh media with appropriate dilutions of the NC and H3 siRNA for Hsp90 knockdown were added such that the final concentration in the wells of the plate was 100 nM. Minis TKO transfection reagent was used for transfecting the cells. The plate was then incubated at 37° C. overnight.
The media was aspirated and the cells were washed off twice—first with warm PBS and second with 0.1% BSA containing growth media. The cells were then serum starved for 2-3 hours in 0.1% differentiation media containing the appropriate inhibitors at 37° C. followed by insulin stimulation for 5 minutes (0, 10, and 100 nM insulin).
The wells were then washed once with PBS and harvested into 100 μl of RIPA buffer containing protease and phosphatase inhibitors. The plate was placed on ice and, using a cell scraper, the cells were scraped from the plate. The lysates were collected in 1.5 ml Eppendorf tubes and homogenized by using a syringe and needle. The lysates were then centrifuged at 4° C. for 10 mins at 14,000 RPM. The lysates can be stored at −20° C. for future use.
Protein content was estimated by BCA assay and samples were prepared for gel electrophoresis and western blotting as described in subsequent sections. The total volume required to load 10 μg of total protein was calculated.
The samples were loaded onto a bis-tris or a tris-glycine-SDS gel. Proteins were transferred to a PVDF or a nitrocellulose membrane using routine wet or dry transfer methods. The membranes were then blocked for at least an hour using the blocking buffer. The membranes were then cut prior to exposure to the appropriate primary antibodies diluted in blocking buffer for incubation. Primary antibodies to pAKT (p-Akt, S473), pERK(p-Erk, Phospho-p44/42 MAPK (Erk1/2) (Thr202/Tyr204), and pGSK3β (Phospho-GSK-3β (Ser9) were obtained from Cell Signaling Inc.® Other antibodies were also obtained from commercial sources. The membrane was placed in the shaker and incubated in the refrigerator (4° C.) overnight.
Visualization of proteins and quantification of western blots was performed as follows. The membranes were washed thrice using 1×PBS-T (10 minutes each). […]
Each strip of membrane was taken out arranged in a clean flat surface. […] The bands were quantified using the BIORAD® software.
HSMM myotubes were sequentially (1) transfected with 3 different siRNAs targeting HSP90AB1 for 48 hours, (2) serum starved for 3 hours, and (3) subjected to stimulation of different concentrations of insulin (0, 10, 100 nM). Signaling events downstream of insulin stimulation were assessed by western blotting for levels of total and phosphorylated Akt, Erk, and GSK3β. […]

HSMM myotubes [2] = test: Seahorse bioenergetic profiling of myotubes (OCR); assay type: cell-based, human
HSP90α and HSP90β = conditions: HSP90α vs HSP90β; cited from earlier work
human Hsp90AB1 protein = test: Knockdown of Hsp90AB1 protein in HSMM by Western blotting; assay type: cell-based; conditions: Western blot, normalized to actin, vs NC1
Experimental: ASO1-ASO6 were tested for their ability to knock down human Hsp90AB1 levels in HSMM myotubes. The effectiveness of oligonucleotides ASO1 (A1), ASO2 (A2) ASO3 (A3) ASO4 (A4) ASO5 (A5) and ASO6 (A6) in knocking down the expression of HSP90AB1 protein is shown by Western blotting in FIGS. 19A and 19B. The oligonucleotide NC1 was used as a negative control. HSP90Ab1 protein levels were normalized to the levels of actin.
(§1) The ASO oligonucleotides ASO5, ASO13 and ASO18 were tested for their ability to reduce expression of human Hsp90AB1 protein in human skeletal muscle myotubes (HSMM) and C2C12 mouse myoblasts by Western blotting. ASO5 was derived from the mouse HSP90ab1 gene, while ASO13 and ASO18 were directed to the human HSP90ab1 gene. The oligonucleotide NC1 was used as a negative control. HSP90AB1protein levels were normalized to the levels of actin.

DIO mice [3] = test: Heat production in DIO mice; assay type: in vivo, mouse; conditions: eight weeks treatment
Experimental: The CLAMS (Columbus Instruments, Columbus, Ohio, USA) metabolic monitoring cages are used to simultaneously monitor horizontal and vertical activity, feeding and drinking, oxygen consumption, and CO2 production. ASO injected and control mice are individually placed in CLAMS cages and monitored over a 4-day period after acclimation to the cages for 1-2 days. The various parameters are recorded in both fasted and fed conditions. Food and water consumption are measured directly as accumulated data. Hourly files display all measurements for each parameter: volume of oxygen consumed, ml/kg per h (VO2), volume of carbon dioxide produced, ml/kg per h (VCO2), respiratory exchange ratio, heat (kcal/h), accumulated food (g), accumulated drink (g), XY total activity (all horizontal beam breaks in counts), XY ambulatory activity (minimum three different, consecutive horizontal beam breaks in counts), and Z activity (all vertical beam breaks in counts). The data are recorded during the 30-s sampling period. The CLAMS data are analyzed by normalizing with lean body mass.

[4] = tested on: Hsp90AB1 protein in C2C12 mouse myoblasts; test: Hsp90AB1 protein expression in C2C12 mouse myoblasts by Western blotting; assay type: cell-based; conditions: Western blot, normalized to actin, vs NC1
Experimental: as §1

DIO mice [5] = test: Insulin level in DIO mice; assay type: in vivo, mouse
Experimental: The mice were divided into four groups: (1) lean (non-diabetic control); (2) diabetic receiving control ASO (NC-ASO); (3) diabetic receiving ASO5; and (4) diabetic receiving ASO6. In various experiments mice were dosed intra-peritoneally with twice per week injection of ASO at […] body weight for 4 or 8 weeks. Skeletal muscles were subjected to quantitative PCR.
Further, the effect of the reduction of Hsp90ab1 protein level on plasma insulin levels was examined.

CCc1cc(-c2n[nH]c(C)c2-c2ccc3c(c2)OCCO3)c(O)cc1O [CCT018159]
effect on insulin signaling and bioenergetics compared with HSP90β knockdown alone (HSMM myotubes [1]): less profound effect | level of pERK (HSMM myotubes [1]; CCT018159 and insulin): No significant changes; also recorded: no change | level of pGSK3β (HSMM myotubes [1]; CCT018159 and insulin): No significant changes; also recorded: no change | insulin stimulated phosphorylation of Akt (phospho-AKT) (HSMM myotubes [1]; CCT018159 then insulin, effect at the higher concentration, 10 uM): increase; also recorded: significantly enhanced | CCCP induced uncoupling response on mitochondrial metabolism (HSMM myotubes [2]; CCT018159 at 1 μM, 3 μM, and 10 μM (FIG. 10 legend)): did not have a significant effect | uncoupled OCR (HSMM myotubes [2]; myotubes, CCT018159 1 μM): increased | uncoupled (CCCP induced) OCR (HSMM myotubes [2]; myotubes, CCT018159, 10 uM induced greater suppression): decreased in a concentration dependent manner | basal OCR (HSMM myotubes [2]; myotubes, CCT018159 at different concentrations): no observed change

O=C(O)/C=C/c1nn(Cc2ccc(Cl)cc2Cl)c2cc(C(F)(F)F)ccc12 [gamendazole]
HSP90 isoform preference (HSP90α and HSP90β): specific for HSP90β

C[C@@H]1C[C@H]2O[C@@H]2/C=C\C=C\C(=O)Cc2c(Cl)c(O)cc(O)c2C(=O)O1 [radicicol]
HSP90 isoform preference (HSP90α and HSP90β): HSP90β is more sensitive

NVP-HS990
HSP90 isoform preference (HSP90α and HSP90β): inhibit both the HSP90α and HSP90β isoforms

mA*mC*mU*mU*mC*mC*T*T*G*A*C*C*C*T*C*C*T*C*mU*mC*mC*mU*mC*mC (antisense ACUUCCTTGACCCTCCTCUCCUCC; sugars from the 5' end m6 d12 m6, all phosphorothioate, methylation of C not given here) [ASO3, modified antisense oligonucleotide derived from the mouse HSP90AB1 gene]
level of HSP90ab1 protein (human Hsp90AB1 protein): effective

mA*mU*mC*mU*mC*mC*T*T*C*T*C*C*C*G*T*T*C*C*mU*mU*mC*mU*mC*mC (antisense AUCUCCTTCTCCCGTTCCUUCUCC; sugars from the 5' end m6 d12 m6, all phosphorothioate, methylation of C not given here) [ASO2, modified antisense oligonucleotide derived from the mouse HSP90AB1 gene]
level of HSP90ab1 protein (human Hsp90AB1 protein): effective | heat production (DIO mice [3]): improves

mA*mU*mG*mC*mC*mC*T*G*A*A*T*T*C*C*A*A*C*T*mG*mA*mC*mC*mU*mU (antisense AUGCCCTGAATTCCAACTGACCUU; sugars from the 5' end m6 d12 m6, all phosphorothioate, methylation of C not given here) [ASO18, modified ASO designed on homology among mouse, monkey and human HSP90ab1 genes]
level of HSP90ab1 protein (human Hsp90AB1 protein): significantly decreased; also recorded: significantly reduced | Hsp90AB1 protein expression [4]: significantly decreased; also recorded: significantly reduced

mC*mC*mA*mC*mU*mU*C*C*T*T*G*A*C*C*C*T*C*C*mU*mC*mU*mC*mC*mU (antisense CCACUUCCTTGACCCTCCUCUCCU; sugars from the 5' end m6 d12 m6, all phosphorothioate, methylation of C not given here) [ASO5, modified antisense oligonucleotide derived from the mouse HSP90AB1 gene]
Hsp90AB1 protein expression [4]: did not significantly reduce | fed insulin levels (DIO mice [5]): significant reduction

mC*mU*mC*mU*mU*mC*C*T*C*T*G*C*C*T*C*A*T*C*mA*mU*mC*mA*mC*mU (antisense CUCUUCCTCTGCCTCATCAUCACU; sugars from the 5' end m6 d12 m6, all phosphorothioate, methylation of C not given here) [ASO13, modified ASO designed on homology among mouse, monkey and human HSP90ab1 genes]
level of HSP90ab1 protein (human Hsp90AB1 protein): significantly decreased; also recorded: significantly reduced | Hsp90AB1 protein expression [4]: significantly decreased; also recorded: significantly reduced

mC*mU*mU*mC*mC*mU*T*G*A*C*C*C*T*C*C*T*C*T*mC*mC*mU*mC*mC*mA (antisense CUUCCUTGACCCTCCTCTCCUCCA; sugars from the 5' end m6 d12 m6, all phosphorothioate, methylation of C not given here) [ASO4, modified antisense oligonucleotide derived from the mouse HSP90AB1 gene]
level of HSP90ab1 protein (human Hsp90AB1 protein): effective

mU*mC*mU*mC*mC*mU*T*C*T*C*C*C*G*T*T*C*C*T*mU*mC*mU*mC*mC*mA (antisense UCUCCUTCTCCCGTTCCTUCUCCA; sugars from the 5' end m6 d12 m6, all phosphorothioate, methylation of C not given here) [ASO1, modified antisense oligonucleotide derived from the mouse HSP90AB1 gene]
level of HSP90ab1 protein (human Hsp90AB1 protein): effective | heat production (DIO mice [3]): improves
